Assay results from the supplement of paper PMC11061612.

Experiments:
Carboplatin = compound: C1CC(C1)(C(=O)[O-])C(=O)[O-].N.N.[Pt+2] [Carboplatin]; conditions: max 10 µM
In short: (§1)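 Plates with 1536 wells received cancer cell lines in 7.5 μl of DMEM/F12 or RPMI containing 10% FBS. After 24 hours at 37°C and 5% CO2, cells were dosed for 72 hours with final DMSO typically 0.2%, and viability was read by CellTiter-Glo 2.0 luminescence scaled between blank-well and DMSO-well means. The single-agent IC50 was taken from a logistic fit of the dose responses made with a non-linear mixed effects model, that logistic curve having two parameters.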

AZD5363 = compound: C1CN(CCC1(C(=O)N[C@@H](CCO)C2=CC=C(C=C2)Cl)N)C3=NC=NC4=C3C=CN4 [AZD5363]; conditions: max 10 µM
In short: as §1

AZD1775 = compound: C=CCn1c(=O)c2cnc(Nc3ccc(N4CCN(C)CC4)cc3)nc2n1-c1cccc(C(C)(C)O)n1 [AZD1775]; conditions: max 3 µM
In short: as §1

Trametinib = compound: CC(=O)Nc1cccc(-n2c(=O)n(C3CC3)c(=O)c3c(Nc4ccc(I)cc4F)n(C)c(=O)c(C)c32)c1 [Trametinib]; conditions: max 1 µM
In short: as §1

Paclitaxel = compound: CC(=O)O[C@H]1C(=O)[C@@]2(C)[C@H]([C@H](OC(=O)c3ccccc3)[C@]3(O)C[C@H](OC(=O)[C@H](O)[C@@H](NC(=O)c4ccccc4)c4ccccc4)C(C)=C1C3(C)C)[C@]1(OC(C)=O)CO[C@@H]1C[C@@H]2O [Paclitaxel]; conditions: max 3 µM
In short: as §1

Palbociclib = compound: CC(=O)c1c(C)c2cnc(Nc3ccc(N4CCNCC4)cn3)nc2n(C2CCCC2)c1=O [Palbociclib]; conditions: max 10 µM
In short: as §1

AZD1390 = compound: CC(C)n1c(=O)n(C)c2cnc3cc(F)c(-c4ccc(OCCCN5CCCCC5)nc4)cc3c21 [AZD1390]; conditions: max 0.3 µM
In short: as §1

Venetoclax = compound: CC1(C)CCC(CN2CCN(c3ccc(C(=O)NS(=O)(=O)c4ccc(NCC5CCOCC5)c([N+](=O)[O-])c4)c(Oc4cnc5[nH]ccc5c4)c3)CC2)=C(c2ccc(Cl)cc2)C1 [Venetoclax]; conditions: max 1 µM
In short: as §1

Dasatinib = compound: CC1=C(C(=CC=C1)Cl)NC(=O)C2=CN=C(S2)NC3=CC(=NC(=N3)C)N4CCN(CC4)CCO [Dasatinib]; conditions: max 2 µM
In short: as §1

SG3199 = compound: CC1=CN2[C@@H](C1)C=NC3=CC(=C(C=C3C2=O)OC)OCCCCCOC4=C(C=C5C(=C4)N=C[C@@H]6CC(=CN6C5=O)C)OC [SG3199]; conditions: max 0.001 µM
In short: as §1

AZD2811 = compound: CCN(CCO)CCCOc1ccc2c(Nc3cc(CC(=O)Nc4cccc(F)c4)[nH]n3)ncnc2c1 [AZD2811]; conditions: max 1 µM
In short: as §1

SN-38 = compound: CCc1c2c(nc3ccc(O)cc13)-c1cc3c(c(=O)n1C2)COC(=O)[C@]3(O)CC [SN-38]; conditions: max 0.3 µM
In short: as §1

AZD0156 = compound: CN(C)CCCOc1ccc(-c2ccc3ncc4c(c3c2)n(C2CCOCC2)c(=O)n4C)cn1 [AZD0156]; conditions: max 3 µM
In short: as §1

AZD4320 = compound: CN(CC[C@H](CSC1=CC=CC=C1)NC2=C(C=C(C=C2)S(=O)(=O)NC(=O)C3=CC=C(C=C3)N4CCC(CC4)[C@H](C5=CC=CC=C5C6=CC=C(C=C6)Cl)O)S(=O)(=O)C(F)(F)F)CCO [AZD4320]; conditions: max 1 µM
In short: as §1

Alisertib = compound: COc1cc(Nc2ncc3c(n2)-c2ccc(Cl)cc2C(c2c(F)cccc2OC)=NC3)ccc1C(=O)O [Alisertib]; conditions: max 10 µM
In short: as §1

Etoposide = compound: COc1cc([C@@H]2c3cc4c(cc3[C@@H](O[C@@H]3O[C@@H]5CO[C@@H](C)O[C@H]5[C@H](O)[C@H]3O)[C@H]3COC(=O)[C@H]23)OCO4)cc(OC)c1O [Etoposide]; conditions: max 10 µM
In short: as §1

Gefitinib = compound: COc1cc2ncnc(Nc3ccc(F)c(Cl)c3)c2cc1OCCCN1CCOCC1 [Gefitinib]; conditions: max 10 µM
In short: as §1

Prexasertib = compound: COc1cccc(OCCCN)c1-c1cc(Nc2cnc(C#N)cn2)n[nH]1 [Prexasertib]; conditions: max 1 µM
In short: as §1

Doxorubicin = compound: COc1cccc2c1C(=O)c1c(O)c3c(c(O)c1C2=O)C[C@@](O)(C(=O)CO)C[C@@H]3O[C@H]1C[C@H](N)[C@H](O)[C@H](C)O1 [Doxorubicin]; conditions: max 1 µM
In short: as §1

AZD5153 = compound: COc1nnc2ccc(N3CCC(c4ccc(OCCN5CCN(C)C(=O)[C@H]5C)cc4)CC3)nn12 [AZD5153]; conditions: max 1 µM
In short: as §1

Lapatinib = compound: CS(=O)(=O)CCNCc1ccc(-c2ccc3ncnc(Nc4ccc(OCc5cccc(F)c5)c(Cl)c4)c3c2)o1 [Lapatinib]; conditions: max 10 µM
In short: as §1

AZD8186 = compound: C[C@@H](Nc1cc(F)cc(F)c1)c1cc(C(=O)N(C)C)cc2c(=O)cc(N3CCOCC3)oc12 [AZD8186]; conditions: max 10 µM
In short: as §1

Crizotinib = compound: C[C@@H](Oc1cc(-c2cnn(C3CCNCC3)c2)cnc1N)c1c(Cl)ccc(F)c1Cl [Crizotinib]; conditions: max 10 µM
In short: as §1

Savolitinib = compound: C[C@@H](c1ccc2nccn2c1)n1nnc2ncc(-c3cnn(C)c3)nc21 [Savolitinib]; conditions: max 1 µM
In short: as §1

AZD6738 = compound: C[C@@H]1COCCN1C2=NC(=NC(=C2)C3(CC3)[S@](=N)(=O)C)C4=C5C=CNC5=NC=C4 [AZD6738]; conditions: max 10 µM
In short: as §1

AZD5991 = compound: Cc1c2c(nn1C)CSCc1cc(n(C)n1)CSc1cc(c3ccccc3c1)OCCCc1c(C(=O)O)n(C)c3c-2c(Cl)ccc13 [AZD5991]; conditions: max 1 µM
In short: as §1

AZD7648 = compound: Cc1cc2ncnn2cc1Nc1ncc2c(n1)n(C1CCOCC1)c(=O)n2C [AZD7648]; conditions: max 10 µM
In short: as §1

Taselisib = compound: Cc1nc(-c2cn3c(n2)-c2ccc(-c4cnn(C(C)(C)C(N)=O)c4)cc2OCC3)n(C(C)C)n1 [Taselisib]; conditions: max 10 µM
In short: as §1

Selumetinib = compound: Cn1cnc2c(F)c(Nc3ccc(Br)cc3Cl)c(C(=O)NOCCO)cc21 [Selumetinib]; conditions: max 10 µM
In short: as §1

SRA737 = compound: N#Cc1cnc(Nc2cc(NC[C@H]3CNCCO3)c(C(F)(F)F)cn2)cn1 [SRA737]; conditions: max 10 µM
In short: as §1

MK-2206 = compound: NC1(c2ccc(-c3nc4ccn5c(=O)[nH]nc5c4cc3-c3ccccc3)cc2)CCC1 [MK-2206]; conditions: max 10 µM
In short: as §1

Gemcitabine = compound: Nc1ccn([C@@H]2O[C@H](CO)[C@@H](O)C2(F)F)c(=O)n1 [Gemcitabine]; conditions: max 0.3 µM
In short: as §1

[1] = compound: O=C(Nc1ccc2[nH]nc(-c3ccncc3)c2c1)[C@@H]1CCN(CC(=O)N2CCN(c3ccc(-c4ncccn4)cc3)CC2)C1; conditions: max 5 µM
In short: as §1

Olaparib = compound: O=C(c1cc(Cc2n[nH]c(=O)c3ccccc23)ccc1F)N1CCN(C(=O)C2CC2)CC1 [Olaparib]; conditions: max 10 µM
In short: as §1

5-Fluorouracil = compound: O=c1[nH]cc(F)c(=O)[nH]1 [5-Fluorouracil]; conditions: max 20 µM
In short: as §1

| Cell Line | IC50, cell viability 72 h (Carboplatin) | IC50, cell viability 72 h (AZD5363) | IC50, cell viability 72 h (AZD1775) | IC50, cell viability 72 h (Trametinib) | IC50, cell viability 72 h (Paclitaxel) | IC50, cell viability 72 h (Palbociclib) | IC50, cell viability 72 h (AZD1390) | IC50, cell viability 72 h (Venetoclax) | IC50, cell viability 72 h (Dasatinib) | IC50, cell viability 72 h (SG3199) | IC50, cell viability 72 h (AZD2811) | IC50, cell viability 72 h (SN-38) | IC50, cell viability 72 h (AZD0156) | IC50, cell viability 72 h (AZD4320) | IC50, cell viability 72 h (Alisertib) | IC50, cell viability 72 h (Etoposide) | IC50, cell viability 72 h (Gefitinib) | IC50, cell viability 72 h (Prexasertib) | IC50, cell viability 72 h (Doxorubicin) | IC50, cell viability 72 h (AZD5153) | IC50, cell viability 72 h (Lapatinib) | IC50, cell viability 72 h (AZD8186) | IC50, cell viability 72 h (Crizotinib) | IC50, cell viability 72 h (Savolitinib) | IC50, cell viability 72 h (AZD6738) | IC50, cell viability 72 h (AZD5991) | IC50, cell viability 72 h (AZD7648) | IC50, cell viability 72 h (Taselisib) | IC50, cell viability 72 h (Selumetinib) | IC50, cell viability 72 h (SRA737) | IC50, cell viability 72 h (MK-2206) | IC50, cell viability 72 h (Gemcitabine) | IC50, cell viability 72 h [1] | IC50, cell viability 72 h (Olaparib) | IC50, cell viability 72 h (5-Fluorouracil) |
| --- | --- | --- | --- | --- | --- | --- | --- | --- | --- | --- | --- | --- | --- | --- | --- | --- | --- | --- | --- | --- | --- | --- | --- | --- | --- | --- | --- | --- | --- | --- | --- | --- | --- | --- | --- |
| Mo-T (Other Blood Carcinomas) | > 10 µM | > 10 µM | 0.79 µM | > 1 µM | 0.106 µM | > 10 µM | > 0.3 µM | > 1 µM | > 2 µM | > 0.001 µM | > 1 µM | 0.044 µM | > 3 µM | 0.671 µM | > 10 µM | 1.09 µM | > 10 µM | > 1 µM | 0.217 µM | 0.343 µM | > 10 µM | > 10 µM | > 10 µM | > 1 µM | > 10 µM | > 1 µM | > 10 µM | > 10 µM | > 10 µM | > 10 µM | > 10 µM | 0.0526 µM | > 5 µM | > 10 µM | > 20 µM |
| MOLT-4 (T-Lymphoblastic Leukemia) | > 10 µM | 4.18 µM | 0.428 µM | > 1 µM | 0.0066 µM | 7.92 µM | > 0.3 µM | > 1 µM | > 2 µM | > 0.001 µM | 0.0311 µM | 0.00299 µM | > 3 µM | 0.0931 µM | 0.0376 µM | 0.123 µM | > 10 µM | 0.0132 µM | 0.057 µM | > 1 µM | > 10 µM | > 10 µM | 2.11 µM | > 1 µM | 1.69 µM | > 1 µM | > 10 µM | 5.93 µM | > 10 µM | 2.31 µM | 6.71 µM | 0.0583 µM | > 5 µM | > 10 µM | 12.8 µM |
| OE33 (Esophageal Adenocarcinoma) | > 10 µM | > 10 µM | 1.59 µM | > 1 µM | 0.736 µM | > 10 µM | > 0.3 µM | > 1 µM | > 2 µM | > 0.001 µM | > 1 µM | 0.199 µM | > 3 µM | > 1 µM | > 10 µM | > 10 µM | > 10 µM | 0.0435 µM | > 1 µM | > 1 µM | > 10 µM | > 10 µM | > 10 µM | > 1 µM | 2.59 µM | > 1 µM | > 10 µM | > 10 µM | > 10 µM | 7.72 µM | > 10 µM | 0.17 µM | > 5 µM | > 10 µM | > 20 µM |
| SW982 (Other Solid Carcinomas) | > 10 µM | > 10 µM | 1.14 µM | 0.702 µM | 0.00645 µM | 4.39 µM | > 0.3 µM | > 1 µM | 0.068 µM | > 0.001 µM | 0.444 µM | 0.00938 µM | > 3 µM | > 1 µM | 1.04 µM | 0.789 µM | > 10 µM | 0.0913 µM | 0.0804 µM | 0.0633 µM | > 10 µM | 4.65 µM | 3.59 µM | > 1 µM | 5.53 µM | > 1 µM | > 10 µM | 2.62 µM | > 10 µM | > 10 µM | > 10 µM | 0.0136 µM | 2.85 µM | > 10 µM | 11.3 µM |
| MOG-G-UVW (Low Grade Glioma) | > 10 µM | > 10 µM | 0.582 µM | 0.148 µM | 0.003 µM | > 10 µM | > 0.3 µM | > 1 µM | > 2 µM | > 0.001 µM | 0.344 µM | 0.0117 µM | > 3 µM | > 1 µM | 0.562 µM | 1.6 µM | > 10 µM | 0.0265 µM | 0.156 µM | 0.34 µM | > 10 µM | 9.25 µM | 4.01 µM | > 1 µM | 5.12 µM | > 1 µM | > 10 µM | 3.69 µM | > 10 µM | > 10 µM | > 10 µM | 0.0273 µM | > 5 µM | > 10 µM | > 20 µM |
